Results from patent US20020198127A1, “Liquid cleaning compositions and their use” (Unilever Home & Personal Care USA, Division of Conopco, Inc., priority 2001, published 2002).
Values belong to the molecule of their own block, whether it stands above or below them.

Test system: protease enzyme
Assay: % residual activity (RA) of the protease enzyme in liquid detergent composition after storage at 37° C.
Type: biochemical
Conditions: for Avg. RA (%): 37° C.; for protease stability versus control, in words: Examples 1-3, storage at 37° C. up to 56 days
Experimental: All catalysts dosed at 0.1% by weight on tope of the composition except complex G. This catalyst was dosed at 0.06 weight %.
In all cases, the pH of the composition was 7.2.
The % residual activity (RA) of the protease enzyme after storage at 37° C. was measured up to 56 days for the compositions of Examples 1-4 alone (controls), for the same compositions with 0.1% by weight of the complex B added and the same compositions with only the free ligand A added on top of the formulation (on a mole equivalent basis of the amount of the ligand in 0.1% by weight of complex B).
In Examples 4-9, 11 and 12, the pH of the composition was 7.2.
In Example 10, the pH of the composition was 8.0.

SMILES: [Cl-].[Cl-].[Fe+2].c1ccc(CN(Cc2ccccn2)C(c2ccccn2)c2ccccn2)nc1 [Complex C]
Avg. RA (%) (Example 5 composition pH 7.2, +0.1% Complex C, day 0): 100.0%
Avg. RA (%) (Example 5 composition pH 7.2, +0.1% Complex C, day 7): 98%
Avg. RA (%) (Example 5 composition pH 7.2, +0.1% Complex C, day 14): 91%
Avg. RA (%) (Example 5 composition pH 7.2, +0.1% Complex C, day 28): 78%

SMILES: CN1CCN(C)CCN(C)CC1.CN1CCN(C)CCN(C)CC1.F[P-](F)(F)(F)(F)F.F[P-](F)(F)(F)(F)F.[Mn+4].[Mn+4].[O-2].[O-2].[O-2] [Complex E, [Mn2(1,4,7-trimethyl-1,4,7-triazacyclononane)2(μ-O)3] (PF6)2]
Avg. RA (%) (Example 7 composition pH 7.2, +0.1% Complex E, day 0): 100.0%
Avg. RA (%) (Example 7 composition pH 7.2, +0.1% Complex E, day 7): 93%
Avg. RA (%) (Example 7 composition pH 7.2, +0.1% Complex E, day 14): 87%
Avg. RA (%) (Example 7 composition pH 7.2, +0.1% Complex E, day 28): 80%

SMILES: COC(=O)C12CN(Cc3ccccn3)CC(C(=O)OC)(C1=O)C(c1ccccn1)N(C)C2c1ccccn1.O.[Cl][Fe][Cl] (stereo not drawn) [Complex H, Chloro(dimethyl 2,4-di-(2-pyridyl)-3-methyl-7-(pyridin-2-ylmethyl)-3,7-diaza-bicyclo[3.3.1]nonan-9-one-1,5-dicarboxylate)iron(II)-chloride hydrate]
Avg. RA (%) (Example 9 composition pH 7.2, +0.1% Complex H, day 0): 100.0%
Avg. RA (%) (Example 9 composition pH 7.2, +0.1% Complex H, day 7): 93%
Avg. RA (%) (Example 9 composition pH 7.2, +0.1% Complex H, day 14): 91%
Avg. RA (%) (Example 9 composition pH 7.2, +0.1% Complex H, day 28): 88%

SMILES: F[P-](F)(F)(F)(F)F.[Cl-].[Fe+2].c1ccc(CNCCN(Cc2ccccn2)Cc2ccccn2)nc1 [Complex D, [Fe(trispicenNH)Cl]PF6]
Avg. RA (%) (Example 6 composition pH 7.2, +0.1% Complex D, day 0): 100.0%
Avg. RA (%) (Example 6 composition pH 7.2, +0.1% Complex D, day 7): 100%
Avg. RA (%) (Example 6 composition pH 7.2, +0.1% Complex D, day 14): 92%
Avg. RA (%) (Example 6 composition pH 7.2, +0.1% Complex D, day 28): 74%

SMILES: CN1CCCN2CCN(C)CCCN(CC1)CC2 [Complex I, 5,12-dimethyl-1,5,8,12-tetraazabicyclo[6.6.2] hexadecane]
Avg. RA (%) (Example 12 composition pH 7.2, +0.1% Complex I, day 0): 100.0%
Avg. RA (%) (Example 12 composition pH 7.2, +0.1% Complex I, day 7): 84%
Avg. RA (%) (Example 12 composition pH 7.2, +0.1% Complex I, day 14): 78%
Avg. RA (%) (Example 12 composition pH 7.2, +0.1% Complex I, day 28): 67%

Continued, values first:

Avg. RA (%) (Example 11 composition pH 7.2, +0.1% Ligand F, day 0): 100.0%
Avg. RA (%) (Example 11 composition pH 7.2, +0.1% Ligand F, day 7): 85%
Avg. RA (%) (Example 11 composition pH 7.2, +0.1% Ligand F, day 14): 76%
Avg. RA (%) (Example 11 composition pH 7.2, +0.1% Ligand F, day 28): 63%
SMILES: c1ccc(CN(CCN(Cc2ccccn2)Cc2ccccn2)Cc2ccccn2)nc1 [Ligand F, N,N,N′,N′-tetrakis(pyridin-2ylmethyl)ethylenediamine]

Avg. RA (%) (Example 8 composition pH 7.2, +0.06% Complex G, day 0): 100.0%
Avg. RA (%) (Example 8 composition pH 7.2, +0.06% Complex G, day 7): 97%
Avg. RA (%) (Example 8 composition pH 7.2, +0.06% Complex G, day 14): 89%
Avg. RA (%) (Example 8 composition pH 7.2, +0.06% Complex G, day 28): 77%
SMILES: F[P-](F)(F)(F)(F)F.F[P-](F)(F)(F)(F)F.[Fe+2].c1ccc(CN(CCN(Cc2ccccn2)Cc2ccccn2)Cc2ccccn2)nc1 [Complex G, [Fe(tpen)] (PF6)2]

Avg. RA (%) (Ex. 1 composition pH 7.2, +0.1% mole equiv. Ligand A, day 0): 100.0%
Avg. RA (%) (Ex. 1 composition pH 7.2, +0.1% mole equiv. Ligand A, day 3): 85.0%
Avg. RA (%) (Ex. 1 composition pH 7.2, +0.1% mole equiv. Ligand A, day 7): 63.9%
Avg. RA (%) (Ex. 1 composition pH 7.2, +0.1% mole equiv. Ligand A, day 14): 48.8%
Avg. RA (%) (Ex. 1 composition pH 7.2, +0.1% mole equiv. Ligand A, day 28): 38.0%
Avg. RA (%) (Ex. 1 composition pH 7.2, +0.1% mole equiv. Ligand A, day 56): 18.4%
Avg. RA (%) (Ex. 2 composition pH 7.2, +0.1% mole equiv. Ligand A, day 0): 100.0%
Avg. RA (%) (Ex. 2 composition pH 7.2, +0.1% mole equiv. Ligand A, day 3): 70.7%
Avg. RA (%) (Ex. 2 composition pH 7.2, +0.1% mole equiv. Ligand A, day 7): 63.1%
Avg. RA (%) (Ex. 2 composition pH 7.2, +0.1% mole equiv. Ligand A, day 14): 46.9%
Avg. RA (%) (Ex. 2 composition pH 7.2, +0.1% mole equiv. Ligand A, day 28): 29.3%
Avg. RA (%) (Ex. 2 composition pH 7.2, +0.1% mole equiv. Ligand A, day 56): 13.0%
Avg. RA (%) (Ex. 3 composition pH 7.2, +0.1% mole equiv. Ligand A, day 0): 100.0%
Avg. RA (%) (Ex. 3 composition pH 7.2, +0.1% mole equiv. Ligand A, day 3): 72.0%
Avg. RA (%) (Ex. 3 composition pH 7.2, +0.1% mole equiv. Ligand A, day 7): 53.0%
Avg. RA (%) (Ex. 3 composition pH 7.2, +0.1% mole equiv. Ligand A, day 14): 32.3%
Avg. RA (%) (Ex. 3 composition pH 7.2, +0.1% mole equiv. Ligand A, day 28): 18.6%
Avg. RA (%) (Ex. 3 composition pH 7.2, +0.1% mole equiv. Ligand A, day 56): 5.2%
protease stability versus control, in words: improvement in stability
SMILES: CC(c1ccccn1)(c1ccccn1)N(Cc1ccccn1)Cc1ccccn1 [Ligand A, N,N-bis(pyridin-2-yl-methyl)-1,1-bis(pyridin-2-yl)-1-aminoethane]

Avg. RA (%) (Ex. 1 composition pH 7.2, +0.1% Complex B, day 0): 100.0%
Avg. RA (%) (Ex. 1 composition pH 7.2, +0.1% Complex B, day 3): 93.7%
Avg. RA (%) (Ex. 1 composition pH 7.2, +0.1% Complex B, day 7): 84.1%
Avg. RA (%) (Ex. 1 composition pH 7.2, +0.1% Complex B, day 14): 93.9%
Avg. RA (%) (Ex. 1 composition pH 7.2, +0.1% Complex B, day 28): 79.0%
Avg. RA (%) (Ex. 1 composition pH 7.2, +0.1% Complex B, day 56): 71.3%
Avg. RA (%) (Ex. 2 composition pH 7.2, +0.1% Complex B, day 0): 100.0%
Avg. RA (%) (Ex. 2 composition pH 7.2, +0.1% Complex B, day 3): 92.2%
Avg. RA (%) (Ex. 2 composition pH 7.2, +0.1% Complex B, day 7): 87.1%
Avg. RA (%) (Ex. 2 composition pH 7.2, +0.1% Complex B, day 14): 80.4%
Avg. RA (%) (Ex. 2 composition pH 7.2, +0.1% Complex B, day 28): 89.7%
Avg. RA (%) (Ex. 2 composition pH 7.2, +0.1% Complex B, day 56): 75.4%
Avg. RA (%) (Ex. 3 composition pH 7.2, +0.1% Complex B, day 0): 100.0%
Avg. RA (%) (Ex. 3 composition pH 7.2, +0.1% Complex B, day 3): 79.0%
Avg. RA (%) (Ex. 3 composition pH 7.2, +0.1% Complex B, day 7): 74.0%
Avg. RA (%) (Ex. 3 composition pH 7.2, +0.1% Complex B, day 14): 64.9%
Avg. RA (%) (Ex. 3 composition pH 7.2, +0.1% Complex B, day 28): 59.8%
Avg. RA (%) (Ex. 3 composition pH 7.2, +0.1% Complex B, day 56): 48.7%
Avg. RA (%) (Example 4 composition (with sorbitol) pH 7.2, +0.1% Complex B, day 0): 100.0%
Avg. RA (%) (Example 4 composition (with sorbitol) pH 7.2, +0.1% Complex B, day 7): 98%
Avg. RA (%) (Example 4 composition (with sorbitol) pH 7.2, +0.1% Complex B, day 14): 97%
Avg. RA (%) (Example 4 composition (with sorbitol) pH 7.2, +0.1% Complex B, day 28): 92%
Avg. RA (%) (Example 10 composition pH 8.0, +0.1% Complex B, day 0): 100.0%
Avg. RA (%) (Example 10 composition pH 8.0, +0.1% Complex B, day 3): 92%
Avg. RA (%) (Example 10 composition pH 8.0, +0.1% Complex B, day 7): 91%
Avg. RA (%) (Example 10 composition pH 8.0, +0.1% Complex B, day 14): 86%
Avg. RA (%) (Example 10 composition pH 8.0, +0.1% Complex B, day 28): 83%
protease stability versus control, in words: improvement in stability
SMILES: CC(c1ccccn1)(c1ccccn1)N(Cc1ccccn1)Cc1ccccn1.O.O.[Cl-].[Cl-].[Fe+2] [Complex B, [Fe(MeN4py)Cl]Cl.2H20]
